Laboratory results as given in PMC10002984, “Dual PTP1B/TC-PTP Inhibitors: Biological Evaluation of 3-(Hydroxymethyl)cinnoline-4(1H)-Ones” (International Journal of Molecular Sciences, 2023).
Marks after values point to notes of the source that are not given here.

What was measured:
[1] = system: TCPTP gene; assay: Gene expression in the liver of obese rats (qPCR), TCPTP gene; assay type: in vivo, rat; details: five-day treatment, vs Ob group
Experimental: (§1) Further, six groups were formed: control (Con, n = 10), obesity (Ob, n = 10), obese rats with five-day treatment with compounds 1 (Ob + 1, n = 5), 2 (Ob + 2, n = 5), 3 (Ob + 3, n = 10), and 4 (Ob + 4, n = 10). All compounds were administered in DMSO (300 µL) at a daily dose of 7 mg/kg (1 and 2), 8 mg/kg (3), and 10 mg/kg (4) (i.p.), based on the results of the preliminary experiments. The used doses of compounds 1–4, in terms of the number of moles of each compound per kg of animal body weight, were equivalent. Control and obese rats received DMSO in the same volumes (300 µL), instead of the tested compounds. During the five days of the experiment, all animals were transferred to standard food and had free access to food and drinking water. […] The test was carried out on the morning of the next day after the last (fifth) injection of the compounds or DMSO, after a 10 h fast. The rest of the animals (n = 5 in each group) were anesthetized and decapitated on the last day of the experiment. The blood and liver samples were taken to measure blood glucose and hormone levels and gene expression in the liver.
The total RNA was isolated from the liver samples of rats using the “ExtractRNA Reagent” (Evrogen, Moscow, Russia), and the samples containing 1 μg of RNA were transcribed to cDNA using the random oligodeoxynucleotide primers and the “MMLV RT kit” (Evrogen, Russia). The amplification procedure was carried out in the mixture containing 10 ng of reverse transcribed product, 0.4 μM of the forward and reverse primers, and the “qPCRmix-HS SYBR + LowROX kit” (Evrogen, Russia). The amplified signals were detected using the “Applied Biosystems® 7500 Real-Time PCR System” (Life Technologies, Carlsbad, CA, USA, Thermo Fisher Scientific Inc., USA). The primers that were used to assess the expression of genes encoding the phosphatase PTP1B, TC-PTP, and SHP1 and the insulin and leptin receptors are presented in Table 4. The obtained data were calculated with the delta–delta Ct method and expressed as a fold expression, relative to the corresponding control. […]

[2] = system: male rats with HFD-induced obesity; assay: Blood glucose, insulin and leptin levels and insulin resistance index in obese rats; assay type: in vivo, male Wistar rats; details: for Glucose, After / Insulin, After / Leptin, After / Glucose, Before / Insulin, Before / Leptin, Before: blood, M ± SEM, n = 5; for Glucose, After / Insulin, After / Leptin, After / IR (insulin resistance index), After: after five-day i.p. treatment, 7 mg/kg (1, 2), 8 mg/kg (3), 10 mg/kg (4); for Glucose, Before / Insulin, Before / Leptin, Before / IR (insulin resistance index), Before: before treatment (baseline); for IR (insulin resistance index), After / IR (insulin resistance index), Before: product of blood glucose and insulin concentrations
Experimental: as §1
The glucose levels in the blood obtained from the tail vein were measured using a glucometer (Life Scan Johnson & Johnson, Denmark) and the test strips “One Touch Ultra” (USA). The levels of insulin and leptin in rat serum were estimated with the “Rat Insulin ELISA” (Mercodia AB, Uppsala, Sweden) and “ELISA for Leptin, Rat” (Cloud-Clone Corporation, Houston, TX, USA) kits. The GTT was carried out using a single injection of glucose (2 g/kg, i.p.) after 10 h of fasting, as described earlier. The blood glucose levels were measured before (0 min) and 15, 30, 60, and 120 min after the glucose load.

| Structure (SMILES) | expression of the TCPTP gene in the liver [1] | Glucose, After [2] | Insulin, After [2] | Leptin, After [2] | Glucose, Before [2] | Insulin, Before [2] | Leptin, Before [2] | IR (insulin resistance index), After [2] | IR (insulin resistance index), Before [2] | insulin resistance index compared to the Ob group ([2]; five-day treatment, 3 8 mg/kg/day) |
| --- | --- | --- | --- | --- | --- | --- | --- | --- | --- | --- |
| O=c1c(CO)n[nH]c2ccc(Br)cc12 [Compound 4, 6-Bromo-3-(hydroxymethyl)cinnolin-4(1H)-one] | significant difference to the Ob group | 5.24 ± 0.25 ^a mM | 1.06 ± 0.13 ^a,c ng/mL | 1.90 ± 0.16 ^a,b,c ng/mL | 5.72 ± 0.30 ^a mM | 1.65 ± 0.18 ^a ng/mL | 3.17 ± 0.25 ^a ng/mL | 5.61 ± 0.89 ^a arb.Units | 9.63 ± 1.57 ^a arb.Units | – |
| O=c1c(CO)n[nH]c2ccc(Cl)cc12 [Compound 3, 6-Chloro-3-(hydroxymethyl)cinnolin-4(1H)-one] | significant difference to the Ob group | 5.36 ± 0.31 ^a mM | 0.93 ± 0.13 ^b,c ng/mL | 1.52 ± 0.21 ^b,c ng/mL | 5.80 ± 0.31 ^a mM | 1.51 ± 0.18 ^a ng/mL | 2.93 ± 0.42 ^a ng/mL | 5.12 ± 0.97 ^b arb.Units | 8.96 ± 1.46 ^a arb.Units | significantly reduced |
| O=c1c(CO)n[nH]c2ccccc12 [Compound 1] | significant difference to the Ob group | 5.74 ± 0.07 ^a mM | 1.11 ± 0.14 ^a ng/mL | 1.72 ± 0.24 ^b,c ng/mL | 5.94 ± 0.22 ^a mM | 1.57 ± 0.16 ^a ng/mL | 3.06 ± 0.40 ^a ng/mL | 6.32 ± 0.77 ^a arb.Units | 9.46 ± 1.31 ^a arb.Units | – |
